# “Also recorded” adds a separate entry of the source. Read-outs that look alike come from different tables or passages of the source.
# How the values were obtained:
# [1] = cited from earlier work
# [2] = Acidity comparison among methanediphosphonic acids; type: physicochemical; settings: for acidity compared with other methanediphosphonic acids (in words): qualitative comparison
# Procedure: (§1) The effect of fluorine substitution on the acidity of methanediphosphonic acid is of interest. Using the empirical equations developed by R. G. Grabenstetter et al. J. Phys. Chem. 71, 4194 (1967), estimated pK° values for mono and difluoro methanediphosphonic acid were calculated and compared with experimental pK° data for the parent acid. It should be noted that the cited work set forth two alternative Taft equations for pK°4 on giving an optimal fit with bulkier substitution (e.g., CH3) and one to fit data for less sterically hindering substituents (e.g., H).
# bone resorption = assay: Inhibition of bone resorption; settings: compared with known drugs; no test data given
# [3] = Estimation of pK° values of mono and difluoro methanediphosphonic acid from 31P chemical shift data; type: physicochemical; settings: calculated from 31P chemical shift data
# Procedure: as §1
# [4] = experimental pK° data, parent acid
# [5] = dichloro methanediphosphonic acid
compound,measurement,setting,value
"O=P(O)(O)CP(=O)(O)O [MDPA, methanediphosphonic acid]",pK° 2,[1]; [4],3.1
same,pK°3,[1]; [4],7.4
same,pK° 4,[1]; [4],11.0
O=P(O)(O)C(Cl)(Cl)P(=O)(O)O [dichloro methanediphosphonic acid],pK°3,[1]; [5],6.1
same,pK° 4,[1]; [5],9.8
same,acidity compared with other methanediphosphonic acids (in words),[2],weaker than the difluoro substituted acid
"O=P(O)(O)C(F)(F)P(=O)(O)O [difluoro MDPA, Difluoro Methanediphosphonic Acid]",inhibition of bone resorption,bone resorption,inhibits bone resorption at least as effectively as known drugs
same,pKa,[3]; read-out: pK° 2,2.57
same,pKa,[3]; read-out: pK° 3,6.08
same,pKa,[3]; read-out: pK° 4,9.07
same,acidity of the fourth proton relative to unfluorinated parent acid,"[2]; more acidic than the unfluorinated parent acid, calculated",100 fold
same,acidity compared with other methanediphosphonic acids (in words),[2],strongest of the halomethanediphosphonic acids
"O=P(O)(O)C(F)P(=O)(O)O [monofluoro MDPA, Fluoro Methanediphosphonic Acid]",pK° 4,[3]; listed as monofluoro acid,approximately 10.1
same,pKa,[3]; read-out: pK° 2,2.78
same,pKa,[3]; read-out: pK° 3,6.62
same,pKa,[3]; read-out: pK° 4,10.1
same,acidity compared with other methanediphosphonic acids (in words),[2]; listed as monofluoro acid,one order of magnitude below that of the parent acid; also recorded: comparable to that of dichloro methanediphosphonic acid
